{"source": "patent US20230045112A1", "about": "“DISULFIRAM AND OTHER REDOX-RELATED COMPOSITIONS FOR BRAIN TUMORS” (Texas Tech University System, priority 2014, published 2023)", "key": {"[1]": {"system": "wild-type and mutant p53, NF-κB, and ubiquitin E1", "assay": "Degradation of redox-sensitive proteins by disulfiram", "format": "cell-based"}, "UW228 cells [2]": {"system": "UW228 cells", "assay": "Soft agar colony formation assay", "format": "cell-based, human", "settings": "50 μM DSF then BCNU or TMZ", "experimental": "(§1) These were performed using the yellow tetrazolium dye (3-(4, 5-dimethylthiazolyl-2)-2, 5-diphenyl tetrazolium bromide) (MTT) as described previously. […] The purple color developed due to formazan was measured at 570 nm using a […]luor Plus plate reader (Tecan Inc.). Cell proliferation was also assessed by colony formation assays on soft agar.\n(§2) Cells were then cultured for 48 hours before performing the MTT assays. […] The effect of drugs on cell survival was computed at each concentration. The data represents the results of three independent experiments performed in triplicate."}, "Cys145 of MGMT": {"target": "T1, Cys145 of MGMT (Homo sapiens, UniProt P16455)", "T1 construct": "hexa-histidine; made in house; host or cells: E. coli", "T1 sequence (P16455 1-207)": "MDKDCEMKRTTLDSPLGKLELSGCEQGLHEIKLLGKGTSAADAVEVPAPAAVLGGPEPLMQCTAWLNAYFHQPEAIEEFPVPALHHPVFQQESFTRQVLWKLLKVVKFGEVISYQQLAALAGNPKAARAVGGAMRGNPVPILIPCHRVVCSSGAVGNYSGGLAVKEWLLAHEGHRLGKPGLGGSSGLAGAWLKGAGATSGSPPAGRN", "assay": "BG-PEG-biotin probe binding to MGMT", "procedure": "Drug treatments and exposure times are shown in labels. […] Cells were trypsinized at times shown. Levels of MGMT activity and protein were determined in cell extracts. […] BG-PEG-biotin (5 μM) was then added and incubations continued for 15 minutes. The samples were electrophoresed, blotted and probed with Streptavidin-HRP to detect the protein-bound biotin (upper panel). […] Streptavidin-HRP was used to probe the resulting blot (upper panel).\nMGMT protein and activity levels were analyzed during the depletion and repletion (FIG. 3B). […] MGMT protein levels as determined by western analyses during the depletion/repletion cycle were consistent with and fully reflected the DNA repair activity profiles (FIG. 3B, left panel)."}, "MGMT": {"target": "T2, MGMT (Homo sapiens, UniProt P16455)", "T2 sequence (P16455 1-207)": "T1 sequence (P16455 1-207)", "assay": "MGMT activity and protein in MGMT-proficient human cancer cell lines (HT29, T47D, HCT116)", "format": "cell-based", "parameters": "endogenous in cells; host or cells: HT29, T47D, HCT116"}, "UW228 cells [3]": {"system": "UW228 cells", "assay": "MTT cell survival assay", "format": "cell-based, human", "experimental": "as §1, §2"}}}
{"smiles": "CCN(CC)C(=S)SSC(=S)N(CC)CC", "note": "[DSF, 1,1′,1″,1′″-[disulfanediylbis(carbonothioylnitrilo)]tetraethane]", "values": [{"measurement": "degradation of redox-sensitive proteins", "setting": "[1]", "value": "degraded by disulfiram in a dose-dependent manner"}, {"measurement": "enhanced cytotoxicity of BCNU or TMZ, colony formation", "setting": "UW228 cells [2]", "value": 3, "unit": "fold"}, {"measurement": "binding of BG-PEG-biotin probe to purified rMGMT after drug", "setting": "Cys145 of MGMT; 50 μM DSF, 20 minutes at 37° C., wild type rMGMT", "value": "significant reduction in binding of the probe"}, {"measurement": "BG-PEG-biotin labeling of MGMT in cell extracts after drug", "setting": "Cys145 of MGMT; UW228 cell extracts, 20 minutes", "value": "eliminated the western blot signal"}, {"measurement": "degradation of MGMT", "setting": "MGMT; 200 μM, 12 hours", "value": "about 70%"}, {"measurement": "inhibition at 400 µM", "setting": "MGMT; HT29 and HCT116 cells, 400 μM, 20 hour", "value": 95, "unit": "%"}, {"measurement": "effect on melphalan-induced cell killing", "setting": "UW228 cells [3]; 50 μM DSF preincubation 12 hours", "value": "did not increase the melphalan-induced cell killing"}, {"measurement": "potentiation of BCNU cytotoxicity", "setting": "UW228 cells [3]; 50 μM DSF preincubation 12 hours, BCNU 4 days", "value": 3, "unit": "fold"}, {"measurement": "increased cytotoxicity of TMZ+DSF compared to TMZ alone", "setting": "UW228 cells [3]; 50 μM DSF preincubation 12 hours, TMZ 4 days", "value": "4 to 5", "unit": "fold"}, {"measurement": "cell killing by DSF alone", "setting": "UW228 cells [3]; 50 μM DSF, 24 hours, then cultured 48 hours", "value": "less than 5%"}]}
